# Data from patent publication US5587382A, “6,9-bis[(2-aminoethyl) amino]benzo [g]isoquinoline-5,10- dione dimaleate; an aza-anthracenedione with reduced cardiotoxicity” (priority 1995, dated 1996).
# Legend:
# heart [1] = test: Cardiotoxic effects (general statement of the invention); conditions: in vivo
# [2] = Cyclic voltammetry in aqueous media (redox potential); type: physicochemical; conditions: for E1/2 (reduction potential): room temperature, saturated calomel reference, scan rate 0.4 V/s
# Procedure: The anthracene 9,10-dione moiety is known to undergo redox processes. The results of cyclic voltammetry measurements in aqueous media are reported in FIG. 1 and summarized as reduction potentials in Table 1.
# Cyclic voltammetry (CV) measurements were performed at room temperature using an Amel scanning potentiostat at the following settings: Initial potential -0.1 V, switching potential […], scan rate 0.4 V/s. A three electrode system was used with a reference saturated calomel electrode and a platinum wire counter electrode; a hanging mercury drop electrode (HMDE, Metrohm) was the working electrode.
# tumors = conditions: cited from earlier work; for antitumor activity: in vivo; for cardiac toxicity (background): clinical / background
# leukemia = test: Previous antitumor activity studies against leukemia in CD2F1 mice; type: in vivo, mouse (CD2F1); conditions: BBR 2778 12 mg/kg/day, mitoxantrone 3 mg/kg/day i.v.
# heart [3] = test: Single dose cardiotoxicity in i.v. treated rats (Study No. 1); type: in vivo, rat (S.D. Crl:CDBR, male); conditions: 6 weeks; for Heart Weight (%): control 100
# Source text: (§1) In the rat (Study No. 1, Table No. 3), the respective effects on the myocardium of BBR 2778 and mitoxantrone were compared. Both drugs were i.v. administered in single equitoxic doses (LD10). In the mouse (Study No. 2, Table No. 4), the respective effects on the myocardium of BBR 2778, mitoxantrone, and doxorubicin, using multiple i.v. equiactive doses with similar activity on solid tumors, were compared. Also in the mouse, in a different study (Study No. 3, Table No. 5), the respective effect on the myocardium of i.v. BBR 2778 dose-active range on murine leukemia was compared with mitoxantrone.
# (§2) Cardiac lesions in the three studies were evaluated in accordance with a qualitative/quantitative method expressly devised for anthracyclines (Bertazzoli C. et al. Cancer Treat. Rep. 63:1877-1883, 1979; Solcia E. et al. Tumori, 67:461-472, 1981).
# Strain: S.D. (Crl:CDBR)
# mixtoxantrone 4.9 mg/kg
# (§3) heart weight and microscopic lesions
# paraffin sections of heart (formalin fixed
# and haematoxilineos in stained) collected 6
# (§4) the product of severity degree (1 or 2)
# (§5) times the extension degree (from 0 to 5)
# (§6) gives the T.C.S. (Total Cardiotoxicity
# (§7) Score, graded from 0 to 10) for each
# (§8) animal. M.T.S. (Mean Total Score) for each
# (§9) group is calculated from the T.C.S. of all
# heart [4] = test: Histopathological evaluation of potential cardiotoxic effect in nude mice during antitumor activity tests (MX-1 bearing); type: in vivo, mouse (CD1 Nu/Nu female); conditions: for cardiotoxicity (conclusion): antitumor protocol, equiactive doses
# Procedure: During an antitumor activity experiment histopathologic examination was carried out on plastic sections (blue toluidine stained) of hearts of some animals sacrificed at the end of the observation period.
# In this experiment (Table 2) CD1 Nu/Nu female mice (8 animals/groups) were transplanted sc with tumor fragments of human mammary carcinoma MX-1. BBR 2778 (60 mg/kg/day) and mitoxantrone (4.5 mg/kg/day) (i.e., at their equiactive doses) were i.v. given once a week for three weeks when tumor weight reached an average of 100-200 mg; animals were sacrificed 60 days after the last treatment.
# Myocardial lesions were scored according to Bertazzoli, C. et al. (1979) Cancer Treat., Rep.: 63, 1877-1883. Briefly, lesions are scored as follows:
# 1: sarcoplasmatic microvacuolizations and/or inclusions, and either interstitial or cellular edema;
# 2: as in 1 plus either sarcoplasmatic macrovacuolizations or one or more of atrophy, necrosis, fibrosis, endocardial lesions and thrombi;
# 0.5: less than 10 single altered myocytes in the whole heart section;
# 1: scattered single altered myocytes (>10);
# 2: scattered small groups of altered myocytes;
# 3: widely spread small groups of altered myocytes;
# 4: confluent groups of altered myocytes;
# The product of severity degree (1 or 2) times the extension degree (from 0 to 5) gives the T.C.S. (total cardiotoxicity score, graded from 0 to 10) for each animal. Mean Total Score (M.T.S.) for each group is calculated from T.C.S. of all the group animals.
# heart [5] = test: Multiple dose cardiotoxicity in i.v. treated mice (Study No. 2); type: in vivo, mouse (C57BL/6NCrlBR, female)
# Source text: as §1, §2, §3
# (§10) plastic sections of heart (formalin fixed
# and blue toluidine stained) collected 60
# and 90 days from the first treatment
# as §4, §5, §6, §7, §8, §9
# [6] = polarographic; Showalter et al 1986; cited from earlier work
# bone marrow = test: Myelotoxicity study (RBC, WBC, PLT counts); type: in vivo, mouse (CD2F1, male); conditions: 3 mg/kg/day i.v. days 1, 4, 7; at nadir day
# Procedure: Using CD2F1 mice, the respective effects on the bone marrow of BBR 2778 and mitoxantrone were compared. The drugs were administered i.v. in multiple doses.
# Compounds: BBR 2778 12 mg/kg/day
# mixtoxantrone 3 mg/kg/day
# Parameters: red blood cells (RBC), white blood cells
# Equipment: Delcon Cellanalyzer CA580A
# [7] = equivalent concentrations; cited from earlier work
# myocardium = conditions: mice; cited from earlier work
# heart [8] = test: Multiple dose cardiotoxicity in i.v. treated mice (Study No. 3); type: in vivo, mouse (CD1, female)
# Source text: as §1, §2
# ______________________________________
# mixtoxantrone 1.1, 1.8 & 2.5
# Treatment: twice a week for 5 weeks (10 dosing)
# low- and mid- dose treated groups;
# twice a week for 4 weeks (7 dosing) in high-
# dose treated groups. In these groups, the
# administration was suspended because of the
# high-dose treated group.
# as §10
# and blue toluidine stained) collected 78
# and 139 days from the first administration
# as §4, §5, §6, §7, §8, §9
# human liver = conditions: metabolic reduction by NADPH; cited from earlier work
# [9] = cyclic voltammetry, aqueous media
# [10] = 65.1 mg/kg i.v. single dose (LD10)
# [11] = 6 mg/kg i.v., cumulative 24 mg/kg, 60 days after first administration
# [12] = 6 mg/kg i.v., cumulative 24 mg/kg, 90 days after first administration
# [13] = 7.5 mg/kg i.v., cumulative 30 mg/kg, 60 days after first administration
# [14] = 7.5 mg/kg i.v., cumulative 30 mg/kg, 90 days after first administration
# [15] = 4.9 mg/kg i.v. single dose (LD10)
# [16] = 3 mg/kg i.v., cumulative 12 mg/kg, 60 days after first administration
# [17] = 3 mg/kg i.v., cumulative 12 mg/kg, 90 days after first administration
# [18] = 4 mg/kg i.v., cumulative 16 mg/kg, 60 days after first administration
# [19] = 4 mg/kg i.v., cumulative 16 mg/kg, 90 days after first administration
structure (smiles),measurement,setting,value
"NCCNc1ccc(NCCN)c2c1C(=O)c1ccncc1C2=O [6,9-bis[(2-aminoethyl)amino]benzo[g]isoquinoline-5,10-dione]",cardiotoxic effects,heart [1],devoid of cardiotoxic effects
O=C1c2ccccc2C(=O)c2c(NCCNCCO)ccc(NCCNCCO)c21 [Ametantrone],E1/2 (reduction potential),[2]; [9],-0.68
same,antitumor activity,tumors,significant antitumor activity
"NCCNc1ccc(NCCN)c2c1C(=O)c1ccncc1C2=O.O=C(O)/C=C\C(=O)O.O=C(O)/C=C\C(=O)O [BBR 2778, 6,9-bis[(2-aminoethyl)amino]benzo[g]isoquinoline-5,10-dione dimaleate]",antitumor efficacy against leukemia at the dose and schedule employed,leukemia,equally effective
same,redox process,[2]; [9],reversible
same,E1/2 (reduction potential),[2]; [9],-0.54
same,reduction potential lower than for mitoxantrone (difference),[2]; vs mitoxantrone,0.2-0.3 V
same,M.T.S. (Mean Total Score),heart [3]; [10],0
same,No. affect. hearts / No. exam. hearts,heart [3]; [10],1/9
same,Heart Weight (%),heart [3]; [10],-6%
same,cardiotoxicity (conclusion),heart [4],does not exert significant cardiotoxicity patterns
same,cardiotoxic effects,heart [1],devoid of cardiotoxic effects
COc1cccc2c1C(=O)c1c(O)c3c(c(O)c1C2=O)C[C@@](O)(C(=O)CO)C[C@@H]3O[C@H]1C[C@H](N)[C@H](O)[C@H](C)O1 [Doxorubicin],cardiac toxicity (background),tumors,severe cumulative and irreversible cardiac toxicity
same,antitumor activity,tumors,outstanding antitumor activity
same,M.T.S.,heart [5]; [11],1
same,No. affect. hearts / No. exam. hearts,heart [5]; [11],6/6
same,M.T.S.,heart [5]; [12],1.1
same,No. affect. hearts / No. exam. hearts,heart [5]; [12],6/6
same,M.T.S.,heart [5]; [13],1.5
same,No. affect. hearts / No. exam. hearts,heart [5]; [13],6/6
same,M.T.S.,heart [5]; [14],2.2
same,No. affect. hearts / No. exam. hearts,heart [5]; [14],6/6
O=C1c2c(O)ccc(O)c2C(=O)c2c(NCCNCCO)ccc(NCCNCCO)c21 [Mitoxantrone],E1/2,[6],-0.775 V
same,antitumor efficacy against leukemia at the dose and schedule employed,leukemia,equally effective
same,leukopenia vs. controls,bone marrow,70%
same,E1/2 (reduction potential),[2]; [9],-0.74
same,in vitro efficacy relative to doxorubicin,[7],higher efficacy than doxorubicin at equivalent concentrations
same,cardiac toxicity (background),tumors,diminished cardiotoxicity when compared to doxorubicin
same,toxic side effects in clinical studies relative to doxorubicin,tumors; clinical studies,far less toxic side effects than those resulting from doxorubicin therapy
same,M.T.S. (Mean Total Score),heart [3]; [15],6
same,No. affect. hearts / No. exam. hearts,heart [3]; [15],7/7
same,Heart Weight (%),heart [3]; [15],-44%
same,M.T.S.,heart [5]; [16],1.4
same,No. affect. hearts / No. exam. hearts,heart [5]; [16],6/6
same,M.T.S.,heart [5]; [17],2.6
same,No. affect. hearts / No. exam. hearts,heart [5]; [17],5/5
same,M.T.S.,heart [5]; [18],1.25
same,No. affect. hearts / No. exam. hearts,heart [5]; [18],6/6
same,M.T.S.,heart [5]; [19],2.5
same,No. affect. hearts / No. exam. hearts,heart [5]; [19],6/6
same,focal myocardial damage (histology),myocardium,high incidence of focal myocardial damage in mice similar to that observed with doxorubicin
same,No. affect. hearts / No. exam. hearts,heart [4]; 4.5 mg/kg/day i.v. q7d × 3,5/5
same,cardiotoxicity (conclusion),heart [4],strongly cardiotoxic
same,M.T.S.,"heart [8]; 1.1 mg/kg i.v., cumulative 11 mg/kg, 78 days after first administration",4
same,M.T.S.,"heart [8]; 1.1 mg/kg i.v., cumulative 11 mg/kg, 139 days after first administration",6
same,M.T.S.,"heart [8]; 1.8 mg/kg i.v., cumulative 18 mg/kg, 78 days after first administration",6.5
same,Total cardiotoxicity score,"heart [8]; 1.8 mg/kg, 139 days (footnote diamond-solid)",8
same,M.T.S.,"heart [8]; 2.5 mg/kg i.v., cumulative 17.5 mg/kg, 78 days after first administration",7.1
same,No. affect. hearts / No. exam. hearts,"heart [8]; 2.5 mg/kg i.v., cumulative 17.5 mg/kg, 139 days after first administration",0/0
same,Total cardiotoxicity score,"heart [8]; affected hearts marked °: 1.1 mg/kg 78 and 139 days, 1.8 and 2.5 mg/kg 78 days",3-8
same,mortality rate,"heart [8]; high dose (2.5 mg/kg/day), administration suspended after 7 dosings",high mortality rate
same,microsomal O2.^- formation,human liver,does not result in a significant increase in microsomal O2.^- formation
COc1cccc2c1C(=O)c1c(O)c3c(c(O)c1C2=O)C[C@@](O)(C(C)=O)C[C@@H]3O[C@H]1C[C@H](N)[C@H](O)[C@H](C)O1 [daunorubicin],E1/2,[6],-0.625 V
same,cardiac toxicity (background),tumors,severe cumulative and irreversible cardiac toxicity
same,antitumor activity,tumors,outstanding antitumor activity
